Literature values, collected in patent US20030114475A1, “Methods for the treatment of addiction” (Addiction Therapies, Inc., priority 2001, published 2003).

Experiments:
[1] = in vivo
[2] = target: dopamine transporter (Homo sapiens, UniProt Q01959)
[3] = system: cocaine self-administration
[4] = in vivo; remark: listed apart in the source

Chain of dopamine transporter (Q01959 whole entry): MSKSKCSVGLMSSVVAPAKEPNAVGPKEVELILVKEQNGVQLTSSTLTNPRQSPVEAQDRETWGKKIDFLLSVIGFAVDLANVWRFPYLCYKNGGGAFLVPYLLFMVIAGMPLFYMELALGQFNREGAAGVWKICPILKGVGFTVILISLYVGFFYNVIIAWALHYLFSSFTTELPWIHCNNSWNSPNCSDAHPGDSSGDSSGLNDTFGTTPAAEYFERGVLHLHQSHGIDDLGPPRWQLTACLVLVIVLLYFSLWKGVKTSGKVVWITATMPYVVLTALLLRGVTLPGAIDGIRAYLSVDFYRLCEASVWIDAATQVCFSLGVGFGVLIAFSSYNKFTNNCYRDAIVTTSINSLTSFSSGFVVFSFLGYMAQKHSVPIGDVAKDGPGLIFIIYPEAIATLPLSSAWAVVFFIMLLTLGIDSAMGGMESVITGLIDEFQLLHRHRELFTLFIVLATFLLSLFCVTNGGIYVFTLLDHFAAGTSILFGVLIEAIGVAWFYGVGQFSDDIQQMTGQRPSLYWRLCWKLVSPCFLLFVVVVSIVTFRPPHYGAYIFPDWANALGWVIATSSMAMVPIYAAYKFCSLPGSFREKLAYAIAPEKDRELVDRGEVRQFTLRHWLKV

Row | Compound | elimination half-life [1] [h] | time to peak plasma concentrations [1] [h] | affinity and selectivity for the dopamine transporter [2] | effect on cocaine self-administration ([3]; rats) | lever presses for a cocaine infusion after pre-treatment ([3]; rats pre-treated with 53.8 mg/kg, oral, decreased from 150±20 lever presses, unpublished observations, Dr. Susan Schenck) [lever presses] | oral availability [4]
1 | COC(=O)C(c1ccccc1)C1CCCCN1 (stereo not drawn) [Methylphenidate, methylphenidate] | 2 to 3 | 1 to 3 | – | – | – | –
2 | Cc1ccc(-c2cc([C@@H]3C4CCC(C[C@@H]3c3ccc(Cl)cc3)N4C)on2)cc1 (stereo partly drawn) [RTI-336] | – | – | high affinity and selectivity | inhibits cocaine self-administration | 36±14 | orally available
